In PubChem BioAssay AID194 (DTP/NCI, 2004):
Values joined by “and” are separate entries in the source; they are usually repeats but may differ in a detail not shown here. Identical values can stand only once. Inconclusive results are not listed.

System: BDF1 mice, B16 melanoma s.c., survival/tumor T/C
Assay: NCI In Vivo Anticancer Drug Screen. Data for tumor model B16 Melanoma (subcutaneous) in B6D2F1 (BDF1) mice
Experimental: The antitumor activity of compounds was measured in mice bearing transplantable tumors. Survival or tumor size were measured and the results are expressed as the measurement made in the treated group (T) divided by the measurement made in the vehicle treated control group (C). The tumor model used in this assay is B16 Melanoma (subcutaneous) in B6D2F1 (BDF1) mice

Compound: O=NN(CCCl)C(=O)NC1CCC(=O)NC1=O (stereo not drawn)
- T/C (endpoint: median survival time, dose: 1.0 mg/kg/injection, schedule: Q01DX009 (ip), vehicle: Klucel (hydroxypropylcellulose) (HPC), higher = longer survival): 115 % of control
- T/C (endpoint: median survival time, dose: 1.56 mg/kg/injection, schedule: Q01DX007 (ip), vehicle: Klucel (hydroxypropylcellulose) (HPC), higher = longer survival): 97 % of control
- T/C (endpoint: median survival time, dose: 4.0 mg/kg/injection, schedule: Q01DX009 (ip), vehicle: Klucel (hydroxypropylcellulose) (HPC), higher = longer survival): 168 % of control and 228 % of control
- T/C (endpoint: median survival time, dose: 4.32 mg/kg/injection, schedule: Q01DX007 (ip), vehicle: Klucel (hydroxypropylcellulose) (HPC), higher = longer survival): 98 % of control
- T/C (endpoint: median survival time, dose: 7.2 mg/kg/injection, schedule: Q01DX007 (ip), vehicle: Klucel (hydroxypropylcellulose) (HPC), higher = longer survival): 121 % of control
- T/C (endpoint: median survival time, dose: 17.0 mg/kg/injection, schedule: Q01DX001 (ip), vehicle: gum acacia, higher = longer survival): 177 % of control
- T/C (endpoint: median survival time, dose: 23.0 mg/kg/injection, schedule: Q01DX001 (ip), vehicle: gum acacia, higher = longer survival): 89 % of control

Compound: C1CN1c1nc(N2CC2)nc(N2CC2)n1
- T/C (endpoint: median survival time, dose: 0.12 mg/kg/injection, schedule: Q01DX009 (ip), vehicle: saline, higher = longer survival): 106 % of control
- T/C (endpoint: median survival time, dose: 0.5 mg/kg/injection, schedule: Q01DX009 (ip), vehicle: saline with Tween-80, higher = longer survival): 110 % of control
- T/C (endpoint: median survival time, dose: 0.5 mg/kg/injection, schedule: Q08DX002 (ip), vehicle: saline with Tween-80, higher = longer survival): 104 % of control
- T/C (endpoint: median survival time, dose: 1.0 mg/kg/injection, schedule: Q01DX009 (ip), vehicle: saline with Tween-80, higher = longer survival): 93 % of control
- T/C (endpoint: median survival time, dose: 2.0 mg/kg/injection, schedule: Q08DX002 (ip), vehicle: saline with Tween-80, higher = longer survival): 179 % of control
- T/C (endpoint: median survival time, dose: 4.0 mg/kg/injection, schedule: Q08DX002 (ip), vehicle: saline with Tween-80, higher = longer survival): 87 % of control
- T/C (endpoint: median tumor weight (est.), dose: 0.12 mg/kg/injection, schedule: Q01DX009 (ip), vehicle: saline with Tween-80, higher = larger tumour): 154 % of control
- T/C (endpoint: median tumor weight (est.), dose: 0.25 mg/kg/injection, schedule: Q01DX009 (ip), vehicle: saline with Tween-80, higher = larger tumour): 95 % of control
- T/C (endpoint: median tumor weight (est.), dose: 0.5 mg/kg/injection, schedule: Q01DX009 (ip), vehicle: saline with Tween-80, higher = larger tumour): 83 % of control
- T/C (endpoint: median tumor weight (est.), dose: 0.5 mg/kg/injection, schedule: Q08DX002 (ip), vehicle: saline with Tween-80, higher = larger tumour): 268 % of control
- T/C (endpoint: median tumor weight (est.), dose: 1.0 mg/kg/injection, schedule: Q01DX009 (ip), vehicle: saline, higher = larger tumour): 34 % of control
- T/C (endpoint: median tumor weight (est.), dose: 1.0 mg/kg/injection, schedule: Q08DX002 (ip), vehicle: saline with Tween-80, higher = larger tumour): 104 % of control
- T/C (endpoint: median tumor weight (est.), dose: 2.0 mg/kg/injection, schedule: Q08DX002 (ip), vehicle: saline with Tween-80, higher = larger tumour): 81 % of control
- T/C (endpoint: median tumor weight (est.), dose: 4.0 mg/kg/injection, schedule: Q08DX002 (ip), vehicle: saline with Tween-80, higher = larger tumour): 19 % of control
- T/C (endpoint: median tumor weight (est.), dose: 4.0 mg/kg/injection, schedule: Q08DX002 (ip), vehicle: saline, higher = larger tumour): 86 % of control

Compound: N[C@H](C(=O)O)[C@@H]1CC(Cl)=NO1
- T/C (endpoint: median survival time, dose: 1.0 mg/kg/injection, schedule: Q01DX009 (ip), vehicle: saline, higher = longer survival): 87 % of control and 114 % of control
- T/C (endpoint: median survival time, dose: 1.4 mg/kg/injection, schedule: Q01DX009 (ip), vehicle: saline, higher = longer survival): 116 % of control
- T/C (endpoint: median survival time, dose: 2.0 mg/kg/injection, schedule: Q01DX009 (ip), vehicle: saline, higher = longer survival): 95 % of control and 105 % of control
- T/C (endpoint: median survival time, dose: 2.1 mg/kg/injection, schedule: Q01DX009 (ip), vehicle: saline, higher = longer survival): 120 % of control
- T/C (endpoint: median survival time, dose: 3.2 mg/kg/injection, schedule: Q01DX009 (ip), vehicle: saline, higher = longer survival): 124 % of control
- T/C (endpoint: median survival time, dose: 4.0 mg/kg/injection, schedule: Q01DX009 (ip), vehicle: saline, higher = longer survival): 90 % of control
- T/C (endpoint: median survival time, dose: 8.0 mg/kg/injection, schedule: Q01DX009 (ip), vehicle: saline, higher = longer survival): 108 % of control
- T/C (endpoint: median survival time, dose: 16.0 mg/kg/injection, schedule: Q01DX009 (ip), vehicle: saline, higher = longer survival): 101 % of control
- T/C (endpoint: median survival time, dose: 27.0 mg/kg/injection, schedule: Q04DX003 (ip), vehicle: saline, higher = longer survival): 120 % of control
- T/C (endpoint: median survival time, dose: 40.0 mg/kg/injection, schedule: Q01DX001 (ip), vehicle: saline, higher = longer survival): 103 % of control
- T/C (endpoint: median survival time, dose: 40.0 mg/kg/injection, schedule: Q04DX003 (ip), vehicle: saline, higher = longer survival): 119 % of control
- T/C (endpoint: median survival time, dose: 60.0 mg/kg/injection, schedule: Q01DX001 (ip), vehicle: saline, higher = longer survival): 113 % of control
- T/C (endpoint: median survival time, dose: 60.0 mg/kg/injection, schedule: Q04DX003 (ip), vehicle: saline, higher = longer survival): 124 % of control
- T/C (endpoint: median survival time, dose: 90.0 mg/kg/injection, schedule: Q01DX001 (ip), vehicle: saline, higher = longer survival): 112 % of control

Compound: COC1=C2C[C@@H](C)C[C@@H](OC)[C@@H](O)[C@H](C)/C=C(\C)[C@@H](OC(N)=O)[C@H](OC)/C=C\C=C(/C)C(=O)NC(=CC1=O)C2=O
- T/C (endpoint: median survival time, dose: 0.5 mg/kg/injection, schedule: Q01DX005 (ip), vehicle: water, higher = longer survival): 118 % of control
- T/C (endpoint: median survival time, dose: 1.0 mg/kg/injection, schedule: Q01DX005 (ip), vehicle: water, higher = longer survival): 105 % of control
